Results published in patent US20080249042A1, “All-Trans-Retinol: All-Trans-13,14-Dihydroretinol Saturase and Methods of Its Use” (UNIVERSITY OF WASHINGTON, priority 2004, published 2008).

Tests used:
RALDH2 = molecular target: T1, RALDH2 (Mus musculus, UniProt Q62148); assay: RALDH oxidation assay, transfected HEK-293S homogenate; assay type: biochemical; conditions: cell homogenate with NAD, NADP, ATP
T1 construct: The full-length cDNA of RALDH2 (MGC:76772, IMAGE: 30471325), RALDH4 (MGC:46977, IMAGE:4223059), and CYP26A1 (MGC:13860, IMAGE:4210893) mRNA was obtained; expressed in transfected cells; host or cells: GnTI-negative HEK-293S, transient; cell homogenate
T1 sequence (Q62148 1-518): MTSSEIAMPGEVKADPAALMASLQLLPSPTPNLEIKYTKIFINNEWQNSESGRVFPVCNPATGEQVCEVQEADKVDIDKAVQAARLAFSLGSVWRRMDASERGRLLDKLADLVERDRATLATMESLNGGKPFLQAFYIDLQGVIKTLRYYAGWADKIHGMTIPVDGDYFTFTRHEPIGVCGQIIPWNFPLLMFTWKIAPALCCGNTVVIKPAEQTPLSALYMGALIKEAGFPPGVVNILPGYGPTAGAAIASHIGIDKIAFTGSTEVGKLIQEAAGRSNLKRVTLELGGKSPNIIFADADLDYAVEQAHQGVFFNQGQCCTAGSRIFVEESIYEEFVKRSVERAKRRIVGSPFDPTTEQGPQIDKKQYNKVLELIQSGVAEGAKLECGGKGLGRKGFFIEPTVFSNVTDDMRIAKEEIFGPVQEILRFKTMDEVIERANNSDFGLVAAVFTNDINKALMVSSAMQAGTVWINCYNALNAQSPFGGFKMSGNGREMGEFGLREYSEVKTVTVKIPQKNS
Method: (§1) RALDH Oxidation Assay. N-Acetylglucosaminyltransferase I-negative HEK-293S cells, obtained from Dr. G. Khorana (Massachusetts Institute of Technology, Boston) were cultured in Dulbecco's modified Eagle's medium, 10% fetal calf serum and maintained at 37° C., 5% CO2, and 100% humidity. Reeves, et al. Proc. Natl. Acad. Sci. U.S.A. 99:13419-13424, 2002. For RALDH enzyme assays, cells were transiently transfected with RALDH1, -2, -3, or -4 expression constructs using Lipofectamine 2000 (Invitrogen) according to the manufacturer's protocol. After 48 h post-transfection, the cells were collected by scraping and were centrifuged. The cell pellet was washed in 137 mM NaCl, 2.7 mM KCl, and 10 mM phosphate (pH 7.4), resuspended in 50 mM Tris (pH 8.0) containing 250 mM sucrose, and homogenized with the aid of a Dounce homogenizer. Cofactors were added to a final concentration of 5 mM NAD, 5 mM NADP, and 1 mM ATP. An aliquot of the cell lysate was boiled for 10 min at 95° C. to provide the control for the nonenzymatic reaction. Substrates in the form of all-trans-RAL or a mixture of isomers of DRAL were added to the cell lysates at a final concentration of 60 μM. The reactions were allowed to proceed for 2 h at 37° C. with shaking and were stopped by the addition of 2 volumes of CH3CN. […] After each run, the column was washed with mixture B (60% tert-butylmethyl ether, 40% methanol) for 10 min at 1.6 ml/min, followed by re-equilibration in phase A. The elution of RA and DRA isomers was monitored at 340 and 290 nm, respectively. The peaks were identified based on their spectra and coelution with standards. The cell lysate was examined for expression of RALDH1-4 by SDS-PAGE and immunoblotting of the V5 epitope-tagged recombinant protein using an anti-V5 epitope monoclonal antibody (Invitrogen).

RALDH4 = molecular target: T2, RALDH4 (Mus musculus, UniProt Q8BH00); assay: as above; assay type: biochemical; conditions: cell homogenate with NAD, NADP, ATP
T2 construct: The full-length cDNA of RALDH2 (MGC:76772, IMAGE: 30471325), RALDH4 (MGC:46977, IMAGE:4223059), and CYP26A1 (MGC:13860, IMAGE:4210893) mRNA was obtained; expressed in transfected cells; host or cells: GnTI-negative HEK-293S, transient; cell homogenate
T2 sequence (Q8BH00 1-487): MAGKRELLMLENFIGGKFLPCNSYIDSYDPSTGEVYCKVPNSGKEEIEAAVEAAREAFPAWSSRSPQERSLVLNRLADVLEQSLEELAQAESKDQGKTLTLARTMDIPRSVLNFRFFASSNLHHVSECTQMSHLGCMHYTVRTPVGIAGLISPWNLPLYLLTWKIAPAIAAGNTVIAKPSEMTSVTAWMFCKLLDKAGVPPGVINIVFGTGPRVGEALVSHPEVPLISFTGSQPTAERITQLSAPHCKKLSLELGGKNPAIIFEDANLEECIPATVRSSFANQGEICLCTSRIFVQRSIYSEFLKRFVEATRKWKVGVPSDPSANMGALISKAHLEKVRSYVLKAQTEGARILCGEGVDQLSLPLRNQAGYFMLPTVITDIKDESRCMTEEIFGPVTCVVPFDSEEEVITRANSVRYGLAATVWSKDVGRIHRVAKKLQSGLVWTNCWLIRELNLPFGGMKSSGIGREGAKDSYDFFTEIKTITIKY
Method: as §1

RALDH1 = molecular target: T3, RALDH1 (Mus musculus, UniProt P24549); assay: as above; assay type: biochemical; conditions: cell homogenate with NAD, NADP, ATP
T3 construct: expressed in transfected cells; host or cells: GnTI-negative HEK-293S, transient; cell homogenate
T3 sequence (P24549 1-501): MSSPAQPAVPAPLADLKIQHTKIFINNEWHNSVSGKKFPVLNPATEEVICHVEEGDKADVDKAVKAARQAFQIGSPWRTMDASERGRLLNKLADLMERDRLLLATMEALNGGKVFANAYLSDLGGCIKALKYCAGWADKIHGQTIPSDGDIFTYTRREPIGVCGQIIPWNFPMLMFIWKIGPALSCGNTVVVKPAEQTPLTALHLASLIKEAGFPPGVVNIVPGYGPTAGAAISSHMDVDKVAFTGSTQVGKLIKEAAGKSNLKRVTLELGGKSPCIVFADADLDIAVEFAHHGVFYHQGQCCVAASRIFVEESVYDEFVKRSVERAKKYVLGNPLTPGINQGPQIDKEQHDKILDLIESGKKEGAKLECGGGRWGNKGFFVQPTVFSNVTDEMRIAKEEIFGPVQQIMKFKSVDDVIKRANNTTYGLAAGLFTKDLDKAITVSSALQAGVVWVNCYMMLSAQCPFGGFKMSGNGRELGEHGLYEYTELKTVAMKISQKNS
Method: as §1

RALDH3 = molecular target: T4, RALDH3 (Mus musculus, UniProt Q9JHW9); assay: as above; assay type: biochemical; conditions: cell homogenate with NAD, NADP, ATP
T4 construct: expressed in transfected cells; host or cells: GnTI-negative HEK-293S, transient; cell homogenate
T4 sequence (Q9JHW9 1-512): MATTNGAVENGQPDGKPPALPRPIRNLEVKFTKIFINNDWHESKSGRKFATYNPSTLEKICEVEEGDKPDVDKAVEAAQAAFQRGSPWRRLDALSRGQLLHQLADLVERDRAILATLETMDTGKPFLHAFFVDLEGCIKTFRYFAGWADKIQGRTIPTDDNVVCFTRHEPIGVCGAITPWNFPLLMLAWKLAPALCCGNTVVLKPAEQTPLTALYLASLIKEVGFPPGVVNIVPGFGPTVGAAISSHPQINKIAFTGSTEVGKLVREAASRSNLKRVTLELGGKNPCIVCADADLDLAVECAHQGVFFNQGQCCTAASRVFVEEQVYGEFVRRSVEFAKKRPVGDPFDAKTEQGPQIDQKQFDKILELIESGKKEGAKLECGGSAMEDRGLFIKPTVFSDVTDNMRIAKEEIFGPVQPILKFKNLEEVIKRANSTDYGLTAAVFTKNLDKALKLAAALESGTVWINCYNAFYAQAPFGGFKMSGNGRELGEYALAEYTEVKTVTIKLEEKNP
Method: as §1

mouse RALDH2 = molecular target: T5, mouse RALDH2 (Mus musculus, UniProt Q62148); conditions: cited from earlier work
T5 sequence (Q62148 1-518): T1 sequence (Q62148 1-518)

mouse RALDH1 = molecular target: T6, mouse RALDH1 (Mus musculus, UniProt P24549); conditions: cited from earlier work
T6 sequence (P24549 1-501): T3 sequence (P24549 1-501)

SMILES: CC(C=CC1=C(C)CCCC1(C)C)=CC=CC(C)CC=O (stereo not drawn) [all-trans-DRAL, 13,14-dihydroretinaldehyde]
- Oxidation to the acid by RALDH2 (RALDH2): efficiently converted
- Oxidation to the acid by RALDH4 (RALDH4): less efficient
- Oxidation to the acid by RALDH1 (RALDH1): less efficient
- Oxidation to the acid by RALDH3 (RALDH3): efficiently converted

SMILES: CC1=C(/C=C/C(C)=C/C=C/C(C)=C/C=O)C(C)(C)CCC1 [all-trans-RAL, all-trans-retinal, reference compound]
- Km (mouse RALDH2): 0.66 µM
- Km (mouse RALDH1): 11.6 µM
- Oxidation to the acid by RALDH2 (RALDH2): efficiently converted
- Oxidation to the acid by RALDH4 (RALDH4): less efficient
- Oxidation to the acid by RALDH1 (RALDH1): less efficient
- Oxidation to the acid by RALDH3 (RALDH3): efficiently converted
